Tests used:
[1] = Experiment 1: weight gain of rats on restricted diet (20 g crushed chow/day) with supplement mixed in chow; assay type: in vivo, Sprague-Dawley male rats; conditions: for average weights and rates of weight gain and growth: days 4 to 11, 20 g chow/day supplemented with 1.0 g GlcNBu or 0.75 g Glc (equimolar) per day per animal; for average weights and rates of weight gain and growth / average rates of weight gain and growth and body weights: compared to control; for average rates of weight gain and growth and body weights: days 12 to 18, 20 g chow/day supplemented with 1.5 g GlcNBu or 1.148 g Glc (equimolar) per day per animal; for stimulation of weight gain and growth (overall, Experiment 1): oral supplementation of restricted diet, 18 days
From the text: Twelve Sprague-Dawley male rats of body weights between 85 and 90 g each were placed in metabolic cages with access to food, each in an individual separate feeding compartment, so the animals could consume all their food without loss or spillage. Each morning 20 g of crushed commercial chow, which was less than the average determined amount of crushed chow these animals consume. ad lib, was placed in each individual feeding compartment. This procedure ensured that each animal would completely consume all of the crushed chow placed in each feeding compartment over the 24 hours starting with the said placement of the food. Supplementation of the crushed chow with the compounds to be tested was accomplished by mixing the compound with the chow. All test compounds were fully acceptable by the animals and the feeding compartments were emptied by the animals of the crushed chow and any test compound mixed therein, within 24 hr from the beginning of each feeding period. The animals were allowed free access to drinking water throughout the experimental period, which they consumed ad lib. The animals, obtained from a single commercial shipment, were randomly assigned to three experimental groups with four animals in each group. The experimental groups of animals are designated in FIG. 1 (A & B) as control; N-butyryl-D-glucosamine, shown as formula (II) and abbreviated as GlcNBu; and D-glucose abbreviated as Glc.
Starting at day 1 and continuing to day 12, inclusive, supplementations of the 20 g of crushed chow per day per animal were as following: Control group—no supplementation; GlcNBu group—supplementation with 1.0 g of GlcNBu per day per animal; Glc—supplementation with 0.75 g of Glc per day per animal, which corresponds to an equimolar amount of this GlcNBu supplementation.
On day 12 and continuing through day 18, the crushed chow (20 g given per day per animal) was further supplemented as follows: Control group—no supplementation; GlcNBu group—supplementation with 1.5 g of GlcNBu per day per animal; Glc —supplementation with 1.148 g of Glc per day per animal, which corresponds to an equimolar amount of this GlcNBu supplementation. It will be observed from FIG. 1 that there was no difference in the average rates of weight gain and growth or weights of the animals in the Glc and the control experimental groups of animals during the period of 12 to 18 days, inclusive.

epiphyseal growth plate = experiment: Experiment 5: 35S[SO4] autoradiography of epiphyseal growth plates; assay type: in vivo, rats; conditions: for mean density value of autoradiograms in the region of the epiphyseal growth plate (area under scan curve; black = 0, white = 255): 20 hours after 20 μCi 35S[SO4] i.p. on day 18 of Experiment 1, 12 autoradiograms per group, control 125.6; for incorporation of radioisotope into sulfated glycosaminoglycans of proteoglycans of the epiphyseal growth plates, compared to control: 20 hours after 35S[SO4] injection
Protocol: At the end of Experiment 1, described above, the rats were injected intra-peritonealy with 20 μCi of ^35S[SO4] in 1 ml of saline on day 18 and sacrificed 20 hours after the injection. The femurs were removed and the distal ends of the bones were processed histologically for autoradiography. Histological sections of the bones were used to make autoradiograms on X-ray film and were also processed for routine histology, including Toluidine blue staining for assessment of the proteoglycans in the growth plate. No histological abnormalities were detected in the histology sections obtained from any of the experimental groups of animals. The density of the autoradiograms in the region of the epiphyseal growth plate was evaluated and quantified utilizing a scanning microscope and the appropriate software. The software calculates the density of the autoradiogram by scoring a black region (maximally incorporated radioactivity) as 0 and a white region (no incorporated radioactivity) as 255. The areas under the curves of the scan of the autoradiogram (see FIG. 5) are then computed to give the stated values. The mean values of all of the autoradiograms (12 autoradiograms for each group of animals) were: Control, 125.6; Glc-supplemented, 127.1; GlcNBu—supplemented, 143.2. FIG. 5 illustrates scans of typical autoradiograms for the control, Glc-supplemented and GlcNBu-supplemented groups. Each scan is illustrated by a curve whose bases (at the top right and left of the figure) represent radioisotope incorporation at the periphery of the epiphyseal growth plate, while the trough of the curve (in the central part of the figure) represents radioisotope incorporation in the central part of the epiphyseal growth plate. It can be seen that for each of the experimental groups less radioactivity has been incorporated in the central part of the epiphyseal growth plates (the trough of the curve), compared to the periphery of the epiphyseal growth plate (the bases of the curve). The curves with the deepest, middle and least troughs represent autoradiograms from the epiphyses of animals fed with GlcNBu (dots-dashes), Glc (dots) and controls (solid line), respectively, as described in Experiment 1.

[2] = Acute toxicology studies in rats (feeding); assay type: in vivo; conditions: for rate of weight gain and growth compared to control animals: fed in significant amounts (glucosamine) or equimolar amounts (glucose)
Protocol: Acute toxicology studies were carried out in order to evaluate the toxicity in rats of the aforesaid compounds.

[3] = Experiment 2: weight gain of rats restricted to 10 g (later 15 g) chow/day, supplement dissolved in water then solid; assay type: in vivo, Sprague Dawley male rats
Protocol: The animals were maintained in metabolic cages for the duration of the study (FIG. 2). Parameters of behavior and physical appearance were observed daily for any indications of toxicological complications. Twelve Sprague Dawley male rats were restricted to 10 g of Purina Rat Chow per day for eight days. Treatment groups were provided with water containing 20 mg/mL GlcN or GlcNBu. Daily volumes of urine produced and water consumed were recorded. The mean water consumption (ml/day) for the three groups was: 22.80, 24.45 and 21.45 for the control, the GlcN-supplemented and the GlcNBu-supplemented groups, respectively. These values were not statistically significant. On day nine of the study, untreated water was provided and the mass of rat chow given daily was increased to 15 g, supplemented with an additional 1.0 g of solid treatment compound. On day 18, the animals were sacrificed by CO2 asphyxiation and their organs were inspected for damage.

[4] = Experiment 3: weight gain of rats restricted to 10 g chow/day and gavaged with supplement; assay type: in vivo, Sprague Dawley male rats; conditions: 300 mg by gavage three times daily, by the eighth day of treatment
Protocol: The weights, and behavioral and physical parameters of 20 Sprague Dawley male rats, 5 per treatment group, were monitored over a ten-day period. The control group was given Purina Rat Chow ad libitum. The treatment groups were restricted to 10 g of rat chow per day and were supplemented with one of 300 mg GlcNBu, 300 mg GlcN or water, administered by gavage three times daily (FIG. 3). The animals were then sacrificed by CO2 asphyxiation and their organs checked for signs of damage.

[5] = Experiment 4: weight gain of rats fed ad libitum and gavaged with various amounts of supplement; assay type: in vivo, Sprague Dawley male rats; conditions: for effect on weight gain: 2000 mg/kg by gavage
Protocol: (§1) For the data illustrated in FIG. 4, thirty Sprague Dawley male rats were adapted for one week so that each of their weights at the onset of treatment was approximately 185 grams. Each treatment group consisted of six animals, each administered one of the following treatments: water, 20 mg/kg GlcNBu, 200 mg/kg GlcNBu, 2000 mg/kg GlcNBu of 2000 mg/kg GlcN. All animals were fed Purina Rat Chow and water ad libitum. […] For nine days, the compounds were administered using the gavage technique; half doses being administered at 08:00 and at 17:00. Final urine samples were collected, histological examinations were performed to identify any overt signs of damage and then samples from each were harvested. Urinanalysis was performed using reagent strips (Multistix 8 SG from Bayer Inc. Healthcare Division, Etobicoke ON). […] No symptoms of neurological damage such as seizures or problems with vision were observed. All animals were well groomed and clean, and their snouts were normal.

[6] = Experiment 4: toxicity observations (behaviour, histological examination, urinanalysis); assay type: in vivo; conditions: gavage nine days; GlcN 2000 mg/kg, GlcNBu 20, 200, 2000 mg/kg; data not shown
Protocol: as §1

[7] = Setnikar I et al. Arzneimittelforschung 1986; cited from earlier work

| Compound | average weights and rates of weight gain and growth [1] | average rates of weight gain and growth and body weights [1] | stimulation of weight gain and growth (overall, Experiment 1) [1] | mean density value of autoradiograms in the region of the epiphyseal growth plate (area under scan curve; black = 0, white = 255) (epiphyseal growth plate) | incorporation of radioisotope into sulfated glycosaminoglycans of proteoglycans of the epiphyseal growth plates, compared to control (epiphyseal growth plate) | rate of weight gain and growth compared to control animals [2] | weight gained over the water controls ([3]; 20 mg/mL in water for 8 days, then 1.0 g solid with 15 g chow, maintained after five days of treatment) | growth compared to the GlcN group ([3]; starting at about day 10) | increase in weight compared to the same amount of GlcN [4] | increase in weights compared to water controls ([5]; 20 mg/kg by gavage, by day 3) | average weight gain compared to the GlcN group (2000 mg/kg) ([5]; 20 mg/kg by gavage, margin became insignificant by day seven) | increase in weights compared to water controls ([5]; 200 mg/kg by gavage, by day 5) | average weight gain compared to the GlcN group (2000 mg/kg) ([5]; 200 mg/kg by gavage, significantly heavier by day 4) | effect on weight gain ([5]; nine days) | dose of maximal stimulatory effect on weight gain and growth ([5]; gavage, nine days, doses 20, 200, 2000 mg/kg) | histological examinations for signs of toxicity [6] | upper limit of feeding in terms of observed toxicity ([2]; oral feeding, rats) | concentrations of free glucosamine in the circulation after ingestion [7] |
| --- | --- | --- | --- | --- | --- | --- | --- | --- | --- | --- | --- | --- | --- | --- | --- | --- | --- | --- |
| O=C[C@H](O)[C@@H](O)[C@H](O)[C@H](O)CO [Glc, D-glucose, reference compound] | essentially identical | no difference | failed to stimulate growth or weight gain | 127.1 | (relatively small) stimulation of epiphyseal plate metabolism | no significant change |  |  |  |  |  |  |  |  |  |  |  |  |
| CCCC(=O)N[C@H]1C(O)O[C@H](CO)[C@@H](O)[C@@H]1O (stereo partly drawn) [GlcNBu, N-butyryl-D-glucosamine] | significantly higher than those of the other groups | further increase in the rate and average body weights | stimulated the weight gain and growth | 143.2 | less incorporation of the radioisotope |  | consistent statistical differences in weight gained over the water controls | grew somewhat more rapidly | significantly greater increase in weight | statistically significant from those of the water controls | significantly higher | statistically significant from those of the water controls | significantly higher | lesser stimulations, which were, nevertheless, higher than the control | 200 mg/kg | failed to reveal any signs of toxicity | no upper limit |  |
| N[C@H]1C(O)O[C@H](CO)[C@@H](O)[C@@H]1O (stereo partly shown) [GlcN, glucosamine] |  |  |  |  |  | decrease in the rate of weight gain and growth |  |  |  |  |  |  |  | depression of weight gain |  |  |  | only very low or not detectable concentrations |
